Assay results from patent US10065941B2, “Aminotriazine derivative and pharmaceutical composition comprising the same” (Shionogi & Co., Ltd., priority 2013, dated 2018).

How the values were obtained:
[1] = Pharmacokinetic test: bioavailability and total body clearance (Test Example 15); type: in vivo; conditions: SD rats, from AUCs of oral and intravenous groups
Description: • (1) Animals: SD rats were used • (2) Breeding conditions: SD rats were allowed to freely take solid food and sterilized tap water. • (3) Dose and grouping: orally or intravenously administered at a predetermined dose; grouping was as follows (Dose depends on the compound)
Oral administration: 1 mg/kg (n=2)
The total body clearance (CLtot) was calculated by dividing the dose by the AUC of the intravenous administration group.

human P2X3 receptor = human P2X3 receptor (Homo sapiens (Human), UniProt P56373); assay: Evaluation of human P2X3 receptor inhibitory activity (Test Example 1); type: cell-based; conditions: C6BU-1 cell transfected with human P2X3 receptor gene, FLIPR 384
Method in brief: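 FLIPR calcium read-out: signal taken as peak fluorescence after ATP addition divided by starting fluorescence, and IC50 calculated from it. Compound added 5 min before 150 nM ATP solution (pre-dispense stock) to Fluo-3-AM-loaded C6BU-1 cells stably transfected with human P2X3; HEPES buffer pH 7.5 with probenecid.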

[2] = Metabolism stability test, pooled human hepatic microsomes (Test Example 11); type: in vitro ADME; conditions: human liver microsomes, 30 minutes, compound concentration 0.5 μmol/L
Description: Using commercially available pooled human hepatic microsomes, a test compound is reacted for a constant time, a remaining rate is calculated by comparing a reacted sample and an unreacted sample, thereby, a degree of metabolism in liver is assessed.
A reaction was performed (oxidative reaction) at 37° C. for 0 minute or 30 minutes in the presence of 1 mmol/L NADPH in 0.2 mL of a buffer (50 mmol/L tris-HCl pH 7.4, 150 mmol/L potassium chloride, 10 mmol/L magnesium chloride) containing 0.5 mg protein/mL of human liver microsomes. After the reaction, 50 μL of the reaction solution was added to 100 μL of a methanol/acetonitrile=1/1 (v/v), mixed and centrifuged at 3000 rpm for 15 minutes. The test compound in the supernatant was quantified by LC/MS/MS, and a remaining amount of the test compound after the reaction was calculated, letting a compound amount at 0 minute reaction time to be 100%.
The remaining rate at the compound concentration 0.5 μmol/L are shown below.

rat P2X3 receptor = rat P2X3 receptor (Rattus norvegicus (Rat), UniProt P49654); assay: Evaluation of rat P2X3 receptor inhibitory activity (Test Example 3); type: cell-based; conditions: rat P2X3 receptor gene expressed in C6BU-1 cell; read-out: ratP2X3 IC50
Description: Rat P2X3 receptor gene (GenBank accession number NM_031075) was expressed in C6BU-1 cell. The C6BU-1 cells were seeded in a 96-well microtiter plate at a concentration of 2500 cells/well and cultured in the medium (7.0% fetal bovine serum, 7.0% horse serum, and 1% antibiotic and antifungal in DMEM) for one day at 37° C. under 5% carbon dioxide atmosphere. The plasmid was transfected into the cells using transfection reagent FuGENE6 (Promega). The transfected cells were cultured in the medium for one day at 37° C. under 5% carbon dioxide atmosphere. […] Measurement of fluorescence intensity by FDSS 3000 was started, and 40 μL of DMSO solutions containing different concentrations of the test compound as prepared by dilution with dilution buffer (20 mM HEPES, 137 mM NaCl, 5.27 mM KCl, 0.9 mM MgCl2, 1.26 mM CaCl2, 5.6 mM D-glucose, 2.5 mM probenecid, 0.1% Pluronic F-127, pH7.5) were dispensed to each well through the built-in automatic dispenser. Five minutes after, 50 nM ATP solution (50 μL) prepared by dilution with the dilution buffer was dispensed through the built-in automatic dispenser, and the measurement of fluorescence intensity was continued for 4 min. For each well, the specific maximum fluorescence intensity was calculated as the ratio of the maximum fluorescence intensity after addition of the ATP solution to the fluorescence intensity at the starting of the measurement. […]

human P2X3 receptor, sequence (P56373 whole entry): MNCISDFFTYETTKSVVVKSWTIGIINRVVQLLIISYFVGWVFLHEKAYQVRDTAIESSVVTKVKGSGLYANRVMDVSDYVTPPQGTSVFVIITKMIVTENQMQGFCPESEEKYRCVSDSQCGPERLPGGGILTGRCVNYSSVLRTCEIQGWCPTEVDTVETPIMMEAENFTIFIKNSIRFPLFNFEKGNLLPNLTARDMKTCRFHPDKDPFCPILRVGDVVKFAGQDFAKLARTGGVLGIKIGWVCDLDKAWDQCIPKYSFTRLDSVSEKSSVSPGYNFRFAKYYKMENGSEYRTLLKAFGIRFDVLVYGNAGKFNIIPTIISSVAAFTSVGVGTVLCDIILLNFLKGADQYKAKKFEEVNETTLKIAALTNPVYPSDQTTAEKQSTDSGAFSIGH
rat P2X3 receptor, sequence (P49654 whole entry): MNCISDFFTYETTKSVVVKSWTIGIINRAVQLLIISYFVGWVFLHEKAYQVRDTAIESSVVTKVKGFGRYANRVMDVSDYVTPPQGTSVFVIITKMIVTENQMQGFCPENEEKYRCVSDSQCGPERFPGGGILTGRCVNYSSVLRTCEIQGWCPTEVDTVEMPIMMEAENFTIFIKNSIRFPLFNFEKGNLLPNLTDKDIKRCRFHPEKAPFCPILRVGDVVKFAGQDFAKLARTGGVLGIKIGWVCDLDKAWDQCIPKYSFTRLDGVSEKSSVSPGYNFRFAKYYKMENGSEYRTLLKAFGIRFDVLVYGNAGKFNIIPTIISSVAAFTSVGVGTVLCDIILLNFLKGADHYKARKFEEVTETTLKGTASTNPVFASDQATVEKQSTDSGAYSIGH

SMILES	IC50 (human P2X3 receptor) [nM]	also measured
Cc1ccc(Cn2c(=O)n(C[C@H](C)C(=O)O)c(=O)[nH]/c2=N\c2ccc(Oc3ccc(F)cn3)cc2)cc1 [Compound I-040]	–	BA [1]: 70.3%
C[C@@H](Cn1c(=O)[nH]/c(=N\c2ccc(Oc3cccc(Cl)n3)cc2)n(Cc2ccc(Cl)cc2)c1=O)C(=O)O [Compound I-014]	7	BA [1]: 106.2%
C[C@@H](Cn1c(=O)[nH]/c(=N\c2ccc(Oc3ccccn3)cc2)n(Cc2ccc(Cl)cc2)c1=O)C(=O)O [Compound I-127]	4	BA [1]: 52.8%
O=C(O)C1(Cn2c(=O)[nH]/c(=N\c3ccc(Oc4cccc(F)n4)cc3)n(Cc3ccc(Cl)cc3)c2=O)CC1 [Compound I-017]	6	BA [1]: 80.7%
O=c1[nH]/c(=N\c2ccc(Oc3ncccc3F)cc2)n(Cc2ccc(Cl)cc2)c(=O)n1[C@H]1C[C@H](C(=O)O)C1 [Compound I-063]	9	Metabolism Stability (remaining rate) [2]: 97%
C[C@@H](Cn1c(=O)[nH]/c(=N\c2ccc(Oc3cccc(F)n3)cc2)n(Cc2ccc(F)cc2F)c1=O)C(=O)O [Compound I-029]	14	Metabolism Stability (remaining rate) [2]: 100%
C[C@@H](Cn1c(=O)[nH]/c(=N\c2ccc(Oc3cc(F)ccn3)cc2)n(Cc2ccc(Cl)cc2)c1=O)C(=O)O [Compound I-070]	5	Metabolism Stability (remaining rate) [2]: 103%
Cc1ccc(Oc2ccc(/N=c3\[nH]c(=O)n(CC(C)(C)C(=O)O)c(=O)n3Cc3ccc(Cl)cc3)cc2)nc1 [Compound I-058]	6	BA [1]: 67.2%
COc1cc(Oc2ccc(/N=c3\[nH]c(=O)n([C@@H](C)[C@@H](C)C(=O)O)c(=O)n3Cc3ccc(Cl)cc3)cc2)ccn1 [Compound R-009]	7	IC50 (rat P2X3 receptor): 4 nM
COc1cncc(Oc2ccc(/N=c3\[nH]c(=O)n(C[C@H](C)C(=O)O)c(=O)n3Cc3ccc(Cl)cc3)cc2)c1 [Compound R-201]	8	–
COC(=O)C(C)(C)Cn1c(=O)[nH]/c(=N\c2ccc(Oc3ccc(C)cn3)cc2)n(Cc2ccc(C)cc2)c1=O [Compound I-110]	4	–
Cc1ccc(Oc2ccc(/N=c3\[nH]c(=O)n(CC(C)(C)C(=O)O)c(=O)n3Cc3ccc(Cl)cc3)cc2F)nn1 [Compound R-181]	7	–
Cc1cc(/N=c2\[nH]c(=O)n(CC(C)(C)C(=O)O)c(=O)n2Cc2ccc(Cl)cc2)ccc1N1CCCCC1 [Compound R-143]	97	–
Cc1ccc(Cn2c(=O)n(CC(C)(C)C(=O)O)c(=O)[nH]/c2=N\c2ccc(Oc3ccc(Cl)cn3)cc2)cc1 [Compound I-101]	5	–
COC(=O)C(C)(C)Cn1c(=O)[nH]/c(=N\c2ccc(Oc3ccc(OC(F)F)cn3)cc2)n(Cc2ccc(Cl)cc2)c1=O [Compound I-021]	25	–
Cc1ccc(Cn2c(=O)n([C@@H](C)[C@@H](C)C(=O)O)c(=O)[nH]/c2=N\c2ccc(Oc3ccccn3)cc2)cc1 [Compound I-195]	7	–
COC(=O)[C@@H](C)Cn1c(=O)[nH]/c(=N\c2ccc(Oc3ccc(OC)cn3)cc2)n(Cc2ccc(C)cc2)c1=O [Compound I-222]	4	–
CC(C)(Cn1c(=O)[nH]/c(=N\c2ccc(Oc3cccnn3)c(F)c2)n(Cc2ccc(Cl)cc2)c1=O)C(=O)O [Compound R-038]	7	–
COC(=O)C(C)(C)Cn1c(=O)[nH]/c(=N\c2ccc(Oc3ccc(C(F)(F)F)nn3)cc2)n(Cc2ccc(Cl)cc2)c1=O [Compound R-029]	7	–
CO[C@@H](Cn1c(=O)[nH]/c(=N\c2ccc(Oc3ccc(F)cn3)cc2)n(Cc2ccc(Cl)cc2)c1=O)C(=O)O [Compound I-124]	5	–

SMILES	IC50 (human P2X3 receptor) [nM]	also measured
C[C@@H](Cn1c(=O)[nH]/c(=N\c2ccc(Oc3cccnn3)cc2)n(Cc2ccc(Cl)cc2)c1=O)C(=O)O [Compound R-120]	8	–
COC(=O)[C@@H](C)Cn1c(=O)[nH]/c(=N\c2ccc(Oc3cccc(Cl)n3)cc2)n(Cc2ccc(Cl)cc2)c1=O [Compound I-011]	18	–
Cc1ccc(Cn2c(=O)n([C@@H](C)[C@@H](C)C(=O)O)c(=O)[nH]/c2=N\c2ccc(Oc3ncccc3F)cc2)cc1 [Compound I-096]	8	–
COC(=O)[C@@H](C)Cn1c(=O)[nH]/c(=N\c2ccc(Oc3ncccc3OC)cc2)n(Cc2ccc(Cl)cc2)c1=O [Compound I-153]	13	–
COC(=O)C(C)(C)Cn1c(=O)[nH]/c(=N\c2ccc(Oc3ncc(C)s3)cc2)n(Cc2ccc(C)cc2)c1=O [Compound R-215]	6	–
CCn1c(=O)[nH]/c(=N\c2ccc(Oc3ccc(Cl)nc3C#N)cc2)n(Cc2ccc(Cl)cc2)c1=O [Compound R-166]	48	–
CC(C)(Cn1c(=O)[nH]/c(=N\c2ccc(Oc3cc(F)nc(F)c3)cc2)n(Cc2ccc(Cl)cc2)c1=O)C(=O)O [Compound R-070]	7	–
COC(=O)C(C)(C)Cn1c(=O)[nH]/c(=N\c2ccc(N3CCOCC3)c(F)c2)n(Cc2ccc(Cl)cc2)c1=O [Compound R-107]	217	–
COC(=O)C[C@@H](C)n1c(=O)[nH]/c(=N\c2ccc(Oc3ccccn3)cc2)n(Cc2ccc(Cl)cc2)c1=O [Compound I-157]	5	–
CCn1c(=O)[nH]/c(=N\c2ccc(Oc3ccc(C(=O)OC)c(Cl)n3)cc2)n(Cc2ccc(Cl)cc2)c1=O [Compound R-064]	12	–
CCn1c(=O)nc(Nc2ccc3nc(C(C)C)oc3c2)n(Cc2ccc(Cl)cc2)c1=O [Compound R-007]	301	–
COC(=O)[C@@H](C)Cn1c(=O)[nH]/c(=N\c2ccc(Oc3cccnc3)cc2)n(Cc2ccc(Cl)cc2)c1=O [Compound R-205]	8	–
COC(=O)C(C)(C)Cn1c(=O)[nH]/c(=N\c2ccc(Oc3cccc(Cl)n3)cc2)n(Cc2ccc(C)cc2)c1=O [Compound I-116]	7	–
O=c1[nH]/c(=N\c2ccc(Oc3cccc(F)n3)cc2)n(Cc2ccc(Cl)cc2)c(=O)n1CC1(CO)COC1 [Compound I-042]	4	–
C[C@@H](Cn1c(=O)[nH]/c(=N\c2ccc(Oc3ccccn3)c(F)c2)n(Cc2ccc(Cl)cc2)c1=O)C(=O)O [Compound I-211]	7	–
C[C@@H](Cn1c(=O)[nH]/c(=N\c2ccc(Oc3ncccn3)c(F)c2)n(Cc2ccc(Cl)cc2)c1=O)C(=O)O [Compound R-164]	10	–
COc1ccc(Oc2ccc(/N=c3\[nH]c(=O)n(C[C@H](C)C(=O)O)c(=O)n3Cc3ccc(Cl)cc3)cc2)nc1 [Compound I-079]	5	–
COC(=O)[C@@H](C)Cn1c(=O)[nH]/c(=N\c2ccc(Oc3cncc(OC)c3)cc2)n(Cc2ccc(Cl)cc2)c1=O [Compound R-199]	7	–
COC(=O)[C@H](Cn1c(=O)[nH]/c(=N\c2ccc(Oc3ccccn3)cc2)n(Cc2ccc(Cl)cc2)c1=O)OC [Compound I-143]	5	–
